The supplement of paper PMC10307832

How the values were obtained:
Test in all cases: relative viability (nuclei count vs DMSO), 5 days (fraction); higher = more cells survive
[1] = compound: CC(C)C[C@H](NC(=O)[C@H](Cc1ccccc1)NC(=O)c1cnccn1)B(O)O [Bortezomib] + C[C@]1(O)C[C@@H](c2nc(-c3ccc4ccc(-c5ccccc5)nc4c3)c3c(N)nccn32)C1 [Linsitinib] (partner 1 µM)
Method in brief: (§1)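 Relative viability divides the nuclei count in treated wells by that in vehicle wells. Lung cancer cell lines were seeded in 1536-well plates, dosed by pin tool the next day, and fixed and stained after 5 days in one step with final 0.05% Triton X-100, 1% formaldehyde and 1 ug/ml Hoechst. Dosing was a single drug or a fixed anchor-drug dose plus five library-drug doses (not always all listed) in √10 steps, and values are medians of duplicate plates imaged at 4×.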

[2] = compound: CC(C)C[C@H](NC(=O)[C@H](Cc1ccccc1)NC(=O)c1cnccn1)B(O)O [Bortezomib] + O=C(c1cc(Cc2n[nH]c(=O)c3ccccc23)ccc1F)N1CCN(C(=O)C2CC2)CC1 [Olaparib] (partner 8 µM)
Method in brief: as §1

[3] = compound: CC1=CC(=NN1)NC2=CC(=NC(=N2)/C=C/C3=CC=CC=C3)N4CCN(CC4)C + C[C@]1(O)C[C@@H](c2nc(-c3ccc4ccc(-c5ccccc5)nc4c3)c3c(N)nccn32)C1 [Linsitinib] (partner 1 µM)
Method in brief: as §1

[4] = compound: COC1=CC(c2cc3ccccc3[nH]2)=N/C1=C\c1[nH]c(C)cc1C [Obatoclax] + C[C@]1(O)C[C@@H](c2nc(-c3ccc4ccc(-c5ccccc5)nc4c3)c3c(N)nccn32)C1 [Linsitinib] (partner 1 µM)
Method in brief: as §1

Cell Line: NCI-H2347
- relative viability ([1]; first compound 0.0002 µM): 0.93
- relative viability ([1]; first compound 0.000632 µM): 0.92
- relative viability ([1]; first compound 0.002 µM): 0.848
- relative viability ([1]; first compound 0.006325 µM): 0.29
- relative viability ([1]; first compound 0.02 µM): 0.325
- relative viability ([2]; first compound 0.0002 µM): 0.413
- relative viability ([2]; first compound 0.000632 µM): 0.572
- relative viability ([2]; first compound 0.002 µM): 0.338
- relative viability ([2]; first compound 0.006325 µM): 0.245
- relative viability ([2]; first compound 0.02 µM): 0.249
- relative viability ([3]; first compound 0.08 µM): 0.844
- relative viability ([3]; first compound 0.253 µM): 1.05
- relative viability ([3]; first compound 0.8 µM): 0.99
- relative viability ([3]; first compound 2.53 µM): 0.93
- relative viability ([3]; first compound 8 µM): 0.614
- relative viability ([4]; first compound 0.01 µM): 0.915
- relative viability ([4]; first compound 0.03162 µM): 0.91
- relative viability ([4]; first compound 0.1 µM): 0.787
- relative viability ([4]; first compound 0.3162 µM): 0.91
- relative viability ([4]; first compound 1 µM): 0.909

Cell Line: LOU-NH91
- relative viability ([1]; first compound 0.0002 µM): 0.995
- relative viability ([1]; first compound 0.000632 µM): 0.86
- relative viability ([1]; first compound 0.002 µM): 0.383
- relative viability ([1]; first compound 0.006325 µM): 0.285
- relative viability ([1]; first compound 0.02 µM): 0.294
- relative viability ([2]; first compound 0.0002 µM): 0.893
- relative viability ([2]; first compound 0.000632 µM): 0.84
- relative viability ([2]; first compound 0.002 µM): 0.348
- relative viability ([2]; first compound 0.006325 µM): 0.318
- relative viability ([2]; first compound 0.02 µM): 0.286
- relative viability ([3]; first compound 0.08 µM): 0.953
- relative viability ([3]; first compound 0.253 µM): 1.01
- relative viability ([3]; first compound 0.8 µM): 0.98
- relative viability ([3]; first compound 2.53 µM): 0.775
- relative viability ([3]; first compound 8 µM): 0.501
- relative viability ([4]; first compound 0.01 µM): 0.949
- relative viability ([4]; first compound 0.03162 µM): 0.865
- relative viability ([4]; first compound 0.1 µM): 0.792
- relative viability ([4]; first compound 0.3162 µM): 0.833
- relative viability ([4]; first compound 1 µM): 0.761

Cell Line: NCI-H2228
- relative viability ([1]; first compound 0.0002 µM): 0.671
- relative viability ([1]; first compound 0.000632 µM): 0.717
- relative viability ([1]; first compound 0.002 µM): 0.506
- relative viability ([1]; first compound 0.006325 µM): 0.157
- relative viability ([1]; first compound 0.02 µM): 0.133
- relative viability ([2]; first compound 0.0002 µM): 0.541
- relative viability ([2]; first compound 0.000632 µM): 0.615
- relative viability ([2]; first compound 0.002 µM): 0.289
- relative viability ([2]; first compound 0.006325 µM): 0.0866
- relative viability ([2]; first compound 0.02 µM): 0.0966
- relative viability ([3]; first compound 0.08 µM): 0.776
- relative viability ([3]; first compound 0.253 µM): 0.709
- relative viability ([3]; first compound 0.8 µM): 0.506
- relative viability ([3]; first compound 2.53 µM): 0.154
- relative viability ([3]; first compound 8 µM): 0.0965
- relative viability ([4]; first compound 0.01 µM): 0.536
- relative viability ([4]; first compound 0.03162 µM): 1.03
- relative viability ([4]; first compound 0.1 µM): 1.12
- relative viability ([4]; first compound 0.3162 µM): 0.445
- relative viability ([4]; first compound 1 µM): 0.448

Cell Line: NCI-H358
- relative viability ([1]; first compound 0.0002 µM): 0.755
- relative viability ([1]; first compound 0.000632 µM): 0.622
- relative viability ([1]; first compound 0.002 µM): 0.625
- relative viability ([1]; first compound 0.006325 µM): 0.162
- relative viability ([1]; first compound 0.02 µM): 0.141
- relative viability ([2]; first compound 0.0002 µM): 0.773
- relative viability ([2]; first compound 0.000632 µM): 0.541
- relative viability ([2]; first compound 0.002 µM): 0.46
- relative viability ([2]; first compound 0.006325 µM): 0.0684
- relative viability ([2]; first compound 0.02 µM): 0.076
- relative viability ([3]; first compound 0.08 µM): 0.733
- relative viability ([3]; first compound 0.253 µM): 0.736
- relative viability ([3]; first compound 0.8 µM): 0.331
- relative viability ([3]; first compound 2.53 µM): 0.14
- relative viability ([3]; first compound 8 µM): 0.11
- relative viability ([4]; first compound 0.01 µM): 0.735
- relative viability ([4]; first compound 0.03162 µM): 0.504
- relative viability ([4]; first compound 0.1 µM): 0.394
- relative viability ([4]; first compound 0.3162 µM): 0.344
- relative viability ([4]; first compound 1 µM): 0.278
